Here are results for nine molecules from ChEMBL document CHEMBL2396519, “Structure-based design of β-site APP cleaving enzyme 1 (BACE1) inhibitors for the treatment of Alzheimer's disease” (J Med Chem, 2013).

Series [1] concerns Mus musculus. Description: Inhibition of BACE1 in TASTPM mouse assessed as reduced brain Abeta40 at 250 mg/kg, po bid after 5 days. In kind it is functional. Conditions: 120 h.
Series [2] concerns Mus musculus. The series is described as follows: Inhibition of BACE1 in TASTPM mouse assessed as reduced brain Abeta42 at 250 mg/kg, po bid after 5 days. Format: functional. Conditions: 120 h.
For series [3], the target named is Beta-secretase 1 (Homo sapiens) (UniProt P56817). Description: Inhibition of BACE1 (unknown origin) in a cell-based assay.
Series [4] addresses T1, Beta-secretase 2 (Homo sapiens) (UniProt Q9Y5Z0).
T1 sequence (whole entry): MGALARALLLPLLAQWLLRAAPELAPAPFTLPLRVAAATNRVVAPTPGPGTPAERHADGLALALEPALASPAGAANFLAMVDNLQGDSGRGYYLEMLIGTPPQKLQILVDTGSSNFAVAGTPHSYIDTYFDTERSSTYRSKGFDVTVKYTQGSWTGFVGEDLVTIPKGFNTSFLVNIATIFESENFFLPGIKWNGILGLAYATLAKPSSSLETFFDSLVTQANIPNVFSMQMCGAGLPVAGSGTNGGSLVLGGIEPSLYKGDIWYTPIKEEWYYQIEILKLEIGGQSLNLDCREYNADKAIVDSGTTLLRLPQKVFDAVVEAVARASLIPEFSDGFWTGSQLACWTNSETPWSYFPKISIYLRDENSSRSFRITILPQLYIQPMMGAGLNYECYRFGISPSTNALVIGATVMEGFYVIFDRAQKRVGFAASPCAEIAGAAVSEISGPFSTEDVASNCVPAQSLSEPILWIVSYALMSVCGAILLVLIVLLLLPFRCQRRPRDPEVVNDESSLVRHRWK
The series is described as follows: Inhibition of BACE2 (unknown origin).

In series [5] the target is Beta-secretase 1 (Homo sapiens) (UniProt P56817). The series is described as follows: Inhibition of human recombinant BACE1 using MBP-C12Swe as substrate by FRET assay.
In series [6] the test system is Homo sapiens. The series is described as follows: Inhibition of BACE1 in alzheimer's disease patient assessed as reduction of plasma Abeta40 level at 90 mg/kg after 24 hrs. Format: functional.
Series [7] deals with Cathepsin D (Homo sapiens) (UniProt P07339). Description: Inhibition of human liver Cathepsin D.
The target in series [8] is T1, Beta-secretase 2 (Homo sapiens). Description: Inhibition of human BACE2 by mcaFRET assay.
Series [9] is described as follows: Plasma concentration in beagle dog at 5 mg/kg, po after 1 hr. Format: ADME, organism-based, Canis lupus familiaris. Also noted: dose 5 mg/kg, route oral.
Series [10] concerns the target Beta-secretase 1 (Homo sapiens) (UniProt P56817). The series is described as follows: Inhibition of BACE1 in HEK293 cells. Format: cell-based.
For series [11], the system named is Brain. Description: Drug uptake in mouse brain at 100 mg/kg, po. In kind it is ADME, organism-based. Also noted: dose 100 mg/kg, route oral. Conditions: in vivo.
In series [12] the test system is Homo sapiens. The series is described as follows: Inhibition of BACE1 in alzheimer's disease patient assessed as reduction of plasma Abeta40 level at 90 mg/kg after 7 hrs. Format: functional.
A further series is filed under the species Sus scrofa. Description: Inhibition of pig gastric mucosa pepsin.
The subject of series [13] is Brain. Description: Drug uptake in mouse brain at 10 mg/kg, po. In kind it is ADME, organism-based. Set-up: dose 10 mg/kg, route oral. Conditions: in vivo.
The subject of series [14] is Canis familiaris. The series is described as follows: Inhibition of BACE1 in beagle dog assessed as reduced CSF Abeta level at 5 mg/kg, po after 9 hrs. Conditions: Canis lupus familiaris. In kind it is functional.
Series [15] relates to Canis familiaris. The series is described as follows: Inhibition of BACE1 in beagle dog assessed as reduced plasma Abeta level at 5 mg/kg, po after 4 to 12 hrs. In kind it is functional. Conditions: Canis lupus familiaris.
Another series addresses T2, Renin (Homo sapiens) (UniProt P00797).
T2 sequence (whole entry): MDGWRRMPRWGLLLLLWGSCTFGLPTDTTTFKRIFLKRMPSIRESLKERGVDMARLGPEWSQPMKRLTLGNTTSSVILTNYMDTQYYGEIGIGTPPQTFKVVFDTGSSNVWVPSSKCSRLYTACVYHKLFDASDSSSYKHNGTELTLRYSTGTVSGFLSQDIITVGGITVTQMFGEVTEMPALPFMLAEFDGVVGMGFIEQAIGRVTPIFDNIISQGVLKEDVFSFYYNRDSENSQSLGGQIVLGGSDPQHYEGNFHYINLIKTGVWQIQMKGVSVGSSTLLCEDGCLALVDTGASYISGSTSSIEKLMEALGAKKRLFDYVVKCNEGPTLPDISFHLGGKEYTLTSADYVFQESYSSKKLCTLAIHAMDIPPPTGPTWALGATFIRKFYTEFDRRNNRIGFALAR
Description: Inhibition of recombinant renin (unknown origin).

Series [16] concerns Brain. The series is described as follows: Drug uptake in mouse brain at 30 mg/kg, po. Conditions: in vivo. Format: ADME, organism-based. Also noted: dose 30 mg/kg, route oral.
A short description of series [17]: Half life in beagle dog at 5 mg/kg, po. In kind it is ADME, organism-based, Canis lupus familiaris. Set-up: dose 5 mg/kg, route oral. Conditions: in vivo.
The test system of series [18] is Canis familiaris. The series is described as follows: Inhibition of BACE1 in beagle dog assessed as reduced CSF Abeta level at 5 mg/kg, po after 3 hrs. Conditions: Canis lupus familiaris. Format: functional.
In series [19] the test system is Homo sapiens. The series is described as follows: Inhibition of BACE1 in alzheimer's disease patient assessed as reduction of CSF Abeta level at 35 mg/kg. Format: functional.
Series [20] deals with Homo sapiens. The series is described as follows: Inhibition of BACE1 in alzheimer's disease patient assessed as reduction of CSF Abeta level at 15 mg/kg. In kind it is functional.

Beta-secretase 1 (Homo sapiens), sequence (P56817 whole entry): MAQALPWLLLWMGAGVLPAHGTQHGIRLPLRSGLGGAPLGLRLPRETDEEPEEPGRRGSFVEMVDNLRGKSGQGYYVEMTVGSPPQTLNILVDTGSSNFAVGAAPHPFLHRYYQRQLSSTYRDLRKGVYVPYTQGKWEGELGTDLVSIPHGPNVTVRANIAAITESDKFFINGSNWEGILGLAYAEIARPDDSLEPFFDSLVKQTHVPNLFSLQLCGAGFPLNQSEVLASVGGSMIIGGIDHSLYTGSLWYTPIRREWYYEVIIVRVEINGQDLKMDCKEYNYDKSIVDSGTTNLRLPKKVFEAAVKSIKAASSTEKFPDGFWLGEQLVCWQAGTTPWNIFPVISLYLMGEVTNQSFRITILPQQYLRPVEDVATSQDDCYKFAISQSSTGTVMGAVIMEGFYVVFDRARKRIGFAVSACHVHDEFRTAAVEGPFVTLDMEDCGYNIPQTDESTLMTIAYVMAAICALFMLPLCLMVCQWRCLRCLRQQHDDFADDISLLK
Cathepsin D (Homo sapiens), sequence (P07339 65-162 limits assumed): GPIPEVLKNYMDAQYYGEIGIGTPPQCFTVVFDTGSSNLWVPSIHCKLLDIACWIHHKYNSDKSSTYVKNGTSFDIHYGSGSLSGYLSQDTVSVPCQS
Cathepsin D (Homo sapiens), sequence (P07339 169-412 limits assumed): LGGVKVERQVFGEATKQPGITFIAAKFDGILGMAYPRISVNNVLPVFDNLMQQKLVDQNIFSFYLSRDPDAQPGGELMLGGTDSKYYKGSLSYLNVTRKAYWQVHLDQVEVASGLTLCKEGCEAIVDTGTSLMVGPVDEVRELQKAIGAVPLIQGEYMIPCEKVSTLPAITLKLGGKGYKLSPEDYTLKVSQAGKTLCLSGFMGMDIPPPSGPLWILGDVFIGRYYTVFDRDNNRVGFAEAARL

For the molecule `CCNc1cc(C(=O)N[C@@H](Cc2ccccc2)[C@H](O)CNCc2cccc(C(F)(F)F)c2)cc(N2CCCCS2(=O)=O)c1`, the figures for the inhibition in vivo at 250 mg/kg with Mus musculus [1] and in the series on Mus musculus [2] were 18% and 23%, respectively.

Consider `CC(C)C[C@H](NC(=O)[C@@H]1CC(=O)NCCCCCCOC(=O)N[C@@H](C(C)C)C(=O)N1)[C@@H](O)C[C@@H](C)C(=O)N[C@H](C(=O)NCc1ccccc1)C(C)C`, for which the INH amounted to 4 µM in [3] and 0.0045 µM in series [4].

`C[C@@H](NC(=O)c1cc(C(=O)N[C@@H](Cc2ccccc2)[C@H](O)[C@@H]2NC(C)(C)N(C)C2=O)cc(N(C)S(C)(=O)=O)c1)c1ccc(F)cc1` gave an INH in [3] of 18 µM.

In turn, `C[C@@H](NC(=O)c1cc(C(=O)N[C@@H](Cc2ccccc2)[C@H](O)[C@@H]2NC(C)(C)N(Cc3ccccc3)C2=O)cc(N(C)S(C)(=O)=O)c1)c1ccc(F)cc1` came in with an INH in [3] of 0.03 µM.

`C[C@@H]1N[C@@H]([C@@H](O)[C@H](Cc2ccccc2)NC(=O)c2cc(C(=O)N[C@H](C)c3ccc(F)cc3)cc(N(C)S(C)(=O)=O)c2)C(=O)N1Cc1ccccc1` returned an INH in [3] of 0.028 µM.

As to `C[C@@]1(c2cccc(-c3cncnc3)c2)CCSC(N)=N1`, the INH in series [5] turned out to be 0.92 µM.

For `Cc1ccc2c(c1)CSC(N)=N2`, the INH in series [5] was found to be 790 µM.

`C[C@@]1(c2cc(-c3cncnc3)c(F)cc2F)CCSC(N)=N1` [LY-2811376]: the inhibition in vivo at 90 mg/kg in the series with Homo sapiens [6] turned out to be 64%; in the series with Homo sapiens [12], 80%. Moreover, the INH in series [7] was determined as 15.7 µM; in series [8], 2.8 µM; in [10], 0.3 µM; in the series filed under Sus scrofa, 32.6 µM; in series [5], 0.24 µM; on Renin (Homo sapiens), 39 µM. In [9], this molecule returned a concentration at 1 h of 1920 ng/mL. The Drug uptake was 12.12 µg/g in the series with Brain [11], 1.46 µg/g with Brain [13] and 3.35 µg/g in the series on Brain [16]. In addition, the inhibition in vivo at 5 mg/kg was 70% with Canis familiaris [14], 85% with Canis familiaris [15] and 43% in the series on Canis familiaris [18]. Also, the half-life in series [17] was 6.8 h.

Consider `NC1=N[C@@]2(c3cc(NC(=O)c4ccc(F)cn4)ccc3F)COC[C@H]2CS1` [LY-2886721], for which the inhibition in vivo at 35 mg/kg in the series on Homo sapiens [19] is 60%. In addition, the inhibition in vivo at 15 mg/kg with Homo sapiens [20] amounted to 30%.

One may read the inhibition in vivo as how much of the control response was suppressed. Broadly, the half-life is the time in which the quantity being followed falls by half. A higher half-life goes with slow loss.
